Converted amounts (≈) assume the structure as drawn. “And” between values parts separate entries of the source, which are not always exact repeats. Equal values may be shown once. Each block holds one molecule with its values, some of them ahead of it.
Legend:
C. albicans = test: Fluconazole MIC given as descriptor of azole resistant clinical isolates (Table 10); type: cell-based; conditions: Candida albicans
Candida albicans [1] = test: CLSI broth microdilution MIC (Example 3); type: cell-based
Protocol: (§1) Antifungal minimum inhibitory concentration (MIC) testing was undertaken as recommended by the CLSI. Briefly, antifungal susceptibility tests were performed for amphotericin B, robenidine (NCL812) and 5 robenidine analogs (NCL062, NCL195, NCL219, NCL259, NCL265) by standard broth microdilution method (CLSI) in RPMI 1640. Various concentrations (ranging from high to low) of the selected compounds were prepared in RPMI 1640 medium by double dilution in 96-well microtitre plates. Each well contained an inoculum of approximately 2×10^3 cells/mL. The wells without addition of drugs served as negative (no inoculum) and positive (inoculum only) growth controls. Microtitre plates were incubated at 35° C. for 24-48 hours. […] Antifungal MICs were determined for each isolate in duplicate; if the values obtained were different, the MIC test was repeated a third time. Antifungal susceptibility tests were performed for amphotericin B and NCL analogs by standard broth microdilution method (CLSI). Briefly, various concentrations (ranging from high to low) of the selected compounds were prepared in RPMI 1640 medium by double dilution in the 96-well plates. Each well contained an inoculum of approximately 2×10^3 cells/mL. The wells without addition of drugs served as a negative control. Micro plates were incubated at 35° C. for 48 hour and read spectrophotometrically at 600 nm, using a microplate reader (Multiskan-EX; Thermo Elect. Corp., USA).

Candida parapsilosis = test: CLSI broth microdilution MIC (Example 3); type: cell-based; conditions: Candida parapsilosis ATCC 22019
Protocol: as §1

Candida albicans [2] = test: CLSI broth microdilution MIC (Example 4); type: cell-based
Method in brief: (§2)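 CLSI broth microdilution in RPMI 1640 with two-fold compound dilutions and inoculum about 2×10^3 cells/mL. Plates incubated 35° C for 24-48 hours; MICs determined in duplicate, with a third test when the duplicates differed.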

Cryptococcus neoformans [3] = test: CLSI broth microdilution MIC (Example 4); type: cell-based
Method in brief: as §2

Candida albicans [4] = test: CLSI broth microdilution MIC (Example 5); type: cell-based
Method in brief: (§3)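 Broth microdilution per CLSI in RPMI 1640 with twofold compound dilutions, inoculum about 2×10^3 cells/mL. Plates incubated at 35° C for 24-48 hours. MIC determined per isolate in duplicate, with a third repeat when the two values differed.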

Cryptococcus neoformans [5] = test: CLSI broth microdilution MIC (Example 5); type: cell-based
Method in brief: as §3

Candida albicans [6] = test: CLSI broth microdilution MIC (Example 6); type: cell-based
Method in brief: (§4)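 CLSI broth microdilution in RPMI 1640, compounds serially double-diluted, inoculum about 2×10^3 cells/mL. Incubation at 35° C for 24-48 hours. MICs determined per isolate in duplicate, with a third repeat if values differed.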

Cryptococcus neoformans [7] = test: CLSI broth microdilution MIC (Example 6); type: cell-based
Method in brief: as §4

C. gattii = test: CLSI broth microdilution MIC (Example 6); type: cell-based, Cryptococcus gattii
Method in brief: as §4

[8] = test system: Candida albicans ATCC14053; test: Broth micro-dilution screen at 16 μg/mL and MIC (Example 9); type: cell-based
Protocol: The antifungal activity of 201 NCL analogs against Candida albicans ATCC14053 in vitro was investigated. A broth micro-dilution method was used, according to CLSI guidelines as described. NCL analogs were dissolved in DMSO and originally screened at a single concentration of 16 μg/mL.

- MIC (C. albicans; C. albicans 12-93301752 Azole Resistant): 32 µg/mL (≈ 104 µM)
- MIC (C. albicans; C. albicans 14-90045999 Azole Resistant): 64 µg/mL (≈ 209 µM)
- MIC (C. albicans; C. albicans 16-24136919 Azole Resistant): 256 µg/mL (≈ 836 µM)
- MIC (C. albicans; C. albicans 18-148-08188 Azole Resistant): 8 µg/mL (≈ 26.1 µM)
Compound: OC(Cn1cncn1)(Cn1cncn1)c1ccc(F)cc1F [Fluconazole]

- MIC (Candida albicans [1]; Candida albicans ATCC 90028, 1st): 2 µg/mL (≈ 7.12 µM)
- MIC (Candida albicans [1]; Candida albicans ATCC 90028, 2nd): 2 µg/mL (≈ 7.12 µM)
- MIC (Candida albicans [1]; Candida albicans, 1st): 2 µg/mL (≈ 7.12 µM)
- MIC (Candida albicans [1]; Candida albicans, 2nd): 4 µg/mL (≈ 14.2 µM)
- MIC (Candida parapsilosis; 1st): 2 µg/mL (≈ 7.12 µM)
- MIC (Candida parapsilosis; 2nd): 2 µg/mL (≈ 7.12 µM)
- MIC at 24-48 hours (Candida albicans [2]; Candida albicans ATCC 90028): 8 µg/mL (≈ 28.5 µM)
- MIC at 24-48 hours (Candida albicans [2]; Candida albicans SA3): 8 µg/mL (≈ 28.5 µM)
- MIC at 24-48 hours (Cryptococcus neoformans [3]; Cryptococcus neoformans SA1): 1 µg/mL (≈ 3.56 µM)
- MIC at 24-48 hours (Cryptococcus neoformans [3]; Cryptococcus neoformans SA2): 1 µg/mL (≈ 3.56 µM)
- MIC (Candida albicans [4]; C. albicans SA3): 8 µg/mL (≈ 28.5 µM)
- MIC (Candida albicans [4]; Candida albicans ATCC 90028): 8 µg/mL (≈ 28.5 µM)
- MIC (Candida albicans [4]; clinical isolate C. albicans 12-93301752 Azole Resistant): 2 µg/mL (≈ 7.12 µM)
- MIC (Candida albicans [4]; clinical isolate C. albicans 14-90045999 Azole Resistant): 16 µg/mL (≈ 57 µM)
- MIC (Candida albicans [4]; clinical isolate C. albicans 15-45171061): 8 µg/mL (≈ 28.5 µM)
- MIC (Candida albicans [4]; clinical isolate C. albicans 15-91329871): 16 µg/mL (≈ 57 µM)
- MIC (Candida albicans [4]; clinical isolate C. albicans 16-24136919 Azole Resistant): 4 µg/mL (≈ 14.2 µM)
- MIC (Candida albicans [4]; clinical isolate C. albicans 16-46177400): 16 µg/mL (≈ 57 µM)
- MIC (Candida albicans [4]; clinical isolate C. albicans 16-90050810): 16 µg/mL (≈ 57 µM)
- MIC (Candida albicans [4]; clinical isolate C. albicans 16-90054237): 16 µg/mL (≈ 57 µM)
- MIC (Candida albicans [4]; clinical isolate C. albicans 18-144-00196): >16 µg/mL
- MIC (Candida albicans [4]; clinical isolate C. albicans 18-148-08188 Azole Resistant): 16 µg/mL (≈ 57 µM)
- MIC (Cryptococcus neoformans [5]; Cryptococcus neoformans SA1): 1 µg/mL (≈ 3.56 µM)
- MIC (Cryptococcus neoformans [5]; Cryptococcus neoformans SA2): 1 µg/mL (≈ 3.56 µM)
- MIC (Candida albicans [6]; C. albicans SA3): 8 µg/mL (≈ 28.5 µM)
- MIC (Candida albicans [6]; Candida albicans ATCC 90028): 8 µg/mL (≈ 28.5 µM)
- MIC (Cryptococcus neoformans [7]; Cryptococcus neoformans SA1): 1 µg/mL (≈ 3.56 µM)
- MIC (Cryptococcus neoformans [7]; Cryptococcus neoformans SA2): 1 µg/mL (≈ 3.56 µM)
- MIC (Cryptococcus neoformans [7]; human clinical isolate C. neoformans serotype A/D hybrid): 8 µg/mL (≈ 28.5 µM)
- MIC (Cryptococcus neoformans [7]; human clinical isolate C. neoformans var grubii 16-90050434): 4 µg/mL (≈ 14.2 µM)
- MIC (Cryptococcus neoformans [7]; human clinical isolate C. neoformans var grubii 17-90028233): 8 µg/mL (≈ 28.5 µM)
- MIC (Cryptococcus neoformans [7]; human clinical isolate C. neoformans var grubii 17-93996464): 8 µg/mL (≈ 28.5 µM)
- MIC (Cryptococcus neoformans [7]; human clinical isolate C. neoformans var grubii 17-93996964): 8 µg/mL (≈ 28.5 µM)
- MIC (C. gattii; human clinical isolate C. gatti 17-90232099): 8 µg/mL (≈ 28.5 µM)
- MIC (C. gattii; human clinical isolate C. gattii 16-90050373): 8 µg/mL (≈ 28.5 µM)
- MIC (C. gattii; human clinical isolate C. gattii 17-90028211): 8 µg/mL and 16 µg/mL
- MIC (C. gattii; human clinical isolate C. gattii 17-90028217): 4 µg/mL (≈ 14.2 µM)
- MIC (C. gattii; human clinical isolate C. gattii 17-90028242): 8 µg/mL (≈ 28.5 µM)
- MIC ([8]; C. albicans ATCC14053, test range 0.25-64 μg/mL, duplicate): 2 µg/mL (≈ 7.12 µM)
Compound: [H]/N=C(\N)NN=C(CCCCCC)c1ccc(Cl)cc1 [NCL265]
- antifungal activity against the two isolates of Candida albicans (Candida albicans [2]; summary in words): high antifungal activity
- activity against one or more isolates of Cryptococcus neoformans and Candida albicans (Candida albicans [4]; summary in words): highly active
- Screen at 16 μg/mL ([8]; single concentration 16 μg/mL, Growth or No growth of C. albicans ATCC14053): No growth

— patent US20230310388A1, “Methods and Compositions for Treating Fungal Infections” (Neoculi Pty Ltd, priority 2020, published 2023)
